In paper PMC8286840, “Identifying SARS-CoV-2 antiviral compounds by screening for small molecule inhibitors of Nsp3 papain-like protease” (Biochemical Journal, 2021):
Structures can show the parent of a compound that is named as a salt. Where two headings read alike, the source gives them in different places.

Assays:
[1] = target: T1, SARS-CoV-2 PLpro (nsp3 1564–1878) (Severe acute respiratory syndrome coronavirus 2, UniProt P0DTD1); test: biochemical; design: FRET-quenched peptide (Pro3) cleavage by PLpro, 10 min pre-incubation, slope over 20 min, normalised to no-compound control; settings: low concentration screen, read-out: % of control remaining
[2] = target: T1, SARS-CoV-2 PLpro (nsp3 1564–1878); test: biochemical; design: FRET-quenched peptide (Pro3) cleavage by PLpro, 10 min pre-incubation, slope over 20 min, normalised to no-compound control; settings: high concentration screen, read-out: % of control remaining

CC(C)[C@@H]1NC(=O)[C@H](C)OC(=O)[C@@H](C(C)C)NC(=O)[C@@H](C(C)C)OC(=O)[C@H](C(C)C)NC(=O)[C@H](C)OC(=O)[C@@H](C(C)C)NC(=O)[C@@H](C(C)C)OC(=O)[C@H](C(C)C)NC(=O)[C@H](C)OC(=O)[C@@H](C(C)C)NC(=O)[C@@H](C(C)C)OC1=O [Valinomycin]
remaining activity at 1.25 µM ([1]; Well no.=3631): 99.9% | remaining activity at 3.75 µM ([2]; Well no.=3631): 101%

O=C(/C=C/c1ccc(O)c(O)c1)OCCc1ccccc1 [Caffeic acid phenethyl ester]
remaining activity at 1.25 µM ([1]; Well no.=140): 103% | remaining activity at 3.75 µM ([2]; Well no.=140): 104%

NC[C@H]1CC[C@H](C(=O)O)CC1 [Tranexamic acid]
remaining activity at 1.25 µM ([1]; Well no.=1816): 97.3% | remaining activity at 3.75 µM ([2]; Well no.=1816): 99.8%

C[C@H](NC(=O)[C@@H](O)c1cc(F)cc(F)c1)C(=O)N[C@@H]1C(=O)N(C)c2ccccc2-c2ccccc21 [LY411575]
remaining activity at 1.25 µM ([1]; Well no.=4689): 102% | remaining activity at 3.75 µM ([2]; Well no.=4689): 101%

CNC(=O)c1ccccc1Sc1ccc2c(/C=C/c3ccccn3)n[nH]c2c1 [Axitinib]
remaining activity at 1.25 µM ([1]; Well no.=2803): 101% | remaining activity at 3.75 µM ([2]; Well no.=2803): 99.1%

Oc1ccc(Cn2cc[nH]c2=S)cc1 [1-(4-Hydroxybenzyl)imidazole-2-thiol]
remaining activity at 1.25 µM ([1]; Well no.=516): 104% | remaining activity at 3.75 µM ([2]; Well no.=516): 105%

C[C@@]12C=Cc3occc3[C@H]1CC[C@]13CC(=O)[C@H](CC[C@H]12)C3 [16-Oxokahweol]
remaining activity at 1.25 µM ([1]; Well no.=3693): 94.8% | remaining activity at 3.75 µM ([2]; Well no.=3693): 99%

NCC(O)c1cc(O)c(O)cc1F (stereo not drawn) [6-Fluoronorepinephrine hydrochloride]
remaining activity at 1.25 µM ([1]; Well no.=227): 97.7% | remaining activity at 3.75 µM ([2]; Well no.=227): 97%

CC(C)C[C@H](NC(=O)[C@H](Cc1ccccc1)NC(=O)c1cnccn1)B(O)O [Bortezomib]
remaining activity at 1.25 µM ([1]; Well no.=1768): 99.9% | remaining activity at 1.25 µM ([1]; Well no.=6302): 98.1% | remaining activity at 3.75 µM ([2]; Well no.=1768): 101%

Cc1cc(-c2nnc(N)nc2-c2ccc(F)cc2)cc(Cl)n1 [AZD4635]
remaining activity at 1.25 µM ([1]; Well no.=8355): 98.3% | remaining activity at 3.75 µM ([2]; Well no.=8355): 96%

CN(NC(=O)CC(=O)NN(C)C(=S)c1ccccc1)C(=S)c1ccccc1 [Elesclomol]
remaining activity at 1.25 µM ([1]; Well no.=5001): 104% | remaining activity at 1.25 µM ([1]; Well no.=6406): 102% | remaining activity at 3.75 µM ([2]; Well no.=5001): 107% | remaining activity at 3.75 µM ([2]; Well no.=6406): 111%

CCNC(=O)c1cc2c(-c3cc(OCCN4CCCC4)c(Cl)cc3Cl)nc(N)nc2s1 [NVP-BEP800]
remaining activity at 1.25 µM ([1]; Well no.=4917): 93.5% | remaining activity at 3.75 µM ([2]; Well no.=4917): 95.1%

N[C@@H](Cc1ccc(F)cc1)C(=O)O [p-Fluoro-L-phenylalanine]
remaining activity at 1.25 µM ([1]; Well no.=707): 95.3% | remaining activity at 3.75 µM ([2]; Well no.=707): 87%

COc1cc(C(=O)OCCCN2CCCN(CCCOC(=O)c3cc(OC)c(OC)c(OC)c3)CC2)cc(OC)c1OC [Dilazep]
remaining activity at 1.25 µM ([1]; Well no.=1931): 100% | remaining activity at 3.75 µM ([2]; Well no.=1931): 99.9%

COc1ccc2c3c4n(c2c1)[C@H](C=C(C)C)OOC(C)(C)C[C@@H]4N1C(=O)[C@@H]2CCCN2C(=O)[C@]1(O)[C@H]3O [Verruculogen]
remaining activity at 1.25 µM ([1]; Well no.=3556): 98.3% | remaining activity at 3.75 µM ([2]; Well no.=3556): 102%

CC(C)COc1ccc(CNC(=O)N(Cc2ccc(F)cc2)C2CCN(C)CC2)cc1 [Pimavanserin tartrate]
remaining activity at 1.25 µM ([1]; Well no.=6989): 103% | remaining activity at 3.75 µM ([2]; Well no.=6989): 102%

N[C@@H](Cc1ccc(O)c(I)c1)C(=O)O [H-Tyr(3-I)-OH]
remaining activity at 1.25 µM ([1]; Well no.=7019): 99.7% | remaining activity at 3.75 µM ([2]; Well no.=7019): 99.6%

COc1cc(Nc2ncc(F)c(Nc3ccc4c(n3)NC(=O)C(C)(C)O4)n2)cc(OC)c1OC [R406 (free base)]
remaining activity at 1.25 µM ([1]; Well no.=4951): 102% | remaining activity at 3.75 µM ([2]; Well no.=4951): 102%

CN1CCN(C2=Nc3ccccc3Oc3ccc(Cl)cc32)CC1 [Loxapine]
remaining activity at 1.25 µM ([1]; Well no.=6371): 99.7% | remaining activity at 3.75 µM ([2]; Well no.=6371): 102%

CC(C)N(CC[C@H](c1ccccc1)c1cc(CO)ccc1O)C(C)C [(R)-5-Hydroxymethyl Tolterodine]
remaining activity at 1.25 µM ([1]; Well no.=7038): 107% | remaining activity at 3.75 µM ([2]; Well no.=7038): 107%

Cc1ccc2c(=O)c3cccc(CC(=O)O)c3oc2c1C [Vadimezan]
remaining activity at 1.25 µM ([1]; Well no.=8465): 104% | remaining activity at 3.75 µM ([2]; Well no.=8465): 97.4%

CC(=O)OCC1=C(C(=O)O)N2C(=O)[C@@H](NC(=O)Cc3cccs3)[C@H]2SC1 [Cephalothin sodium]
remaining activity at 1.25 µM ([1]; Well no.=224): 93.6% | remaining activity at 3.75 µM ([2]; Well no.=224): 96.4%

CN1CCC(=C2c3ccccc3CCc3cccnc32)CC1 [Azatadine (dimaleate)]
remaining activity at 1.25 µM ([1]; Well no.=7617): 103% | remaining activity at 3.75 µM ([2]; Well no.=7617): 105%

C/C=C1/C[C@@H](C)[C@@](C)(O)C(=O)OCC2=CCN3CC[C@@H](OC1=O)[C@@H]23 [Senecionine]
remaining activity at 1.25 µM ([1]; Well no.=3464): 98.3% | remaining activity at 3.75 µM ([2]; Well no.=3464): 99.1%

Cn1c(=O)c2[nH]c(C3CCCC3)nc2n(C)c1=O [8-Cyclopentyl-1,3-dimethylxanthine]
remaining activity at 1.25 µM ([1]; Well no.=723): 98.4% | remaining activity at 3.75 µM ([2]; Well no.=723): 101%

CCCCC/C=C\C/C=C\C/C=C\C[C@H]1O[C@H]1CCCC(=O)O [5,6-Epoxyeicosatrienoic acid]
remaining activity at 1.25 µM ([1]; Well no.=4383): 105% | remaining activity at 3.75 µM ([2]; Well no.=4383): 103%

CO[C@H]1C[C@@H]2CC[C@@H](C)[C@@](O)(O2)C(=O)C(=O)N2CCCC[C@H]2C(=O)O[C@H]([C@H](C)C[C@@H]2CC[C@H](n3cnnn3)[C@H](OC)C2)CC(=O)[C@H](C)/C=C(\C)[C@@H](O)[C@@H](OC)C(=O)[C@H](C)C[C@H](C)/C=C/C=C/C=C/1C [Zotarolimus]
remaining activity at 1.25 µM ([1]; Well no.=8308): 90.2% | remaining activity at 3.75 µM ([2]; Well no.=8308): 91.2%

CC1CCN(CC[C@H]2CCCN2S(=O)(=O)c2cccc(O)c2)CC1 [SB 269970 hydrochloride]
remaining activity at 1.25 µM ([1]; Well no.=1220): 102% | remaining activity at 3.75 µM ([2]; Well no.=1220): 104%

Nc1ncnc2c1nc(Br)n2[C@@H]1O[C@@H]2COP(=O)(O)O[C@H]2[C@H]1O [8-Bromo-cAMP sodium]
remaining activity at 1.25 µM ([1]; Well no.=129): 108% | remaining activity at 3.75 µM ([2]; Well no.=129): 111%

O=C(O)/C(S)=C/c1ccc(I)cc1 [PD 150606]
remaining activity at 1.25 µM ([1]; Well no.=5432): 93.8% | remaining activity at 3.75 µM ([2]; Well no.=5432): 97.7%

C[C@@]1(F)[C@H](O)[C@@H](CO)O[C@H]1n1ccc(N)nc1=O [PSI-6130]
remaining activity at 1.25 µM ([1]; Well no.=7764): 107% | remaining activity at 3.75 µM ([2]; Well no.=7764): 100%

NC(=O)c1cccnc1 [Nicotinamide]
remaining activity at 1.25 µM ([1]; Well no.=6305): 102% | remaining activity at 3.75 µM ([2]; Well no.=6305): 99.5%

COc1cc2c(cc1-c1c(C)noc1C)ncc1[nH]c(=O)n([C@H](C)c3ccccn3)c12 [7-(3,5-dimethyl-4-isoxazolyl)-8-methoxy-1-[(1R)-1-(2-pyridinyl)ethyl]-1,3-dihydro-2H-imidazo[4,5-c]quinolin-2-one]
remaining activity at 1.25 µM ([1]; Well no.=5813): 101% | remaining activity at 3.75 µM ([2]; Well no.=5813): 102%
